In article PMC10408569, “Recruitment of hexahydroquinoline as anticancer scaffold targeting inhibition of wild and mutants EGFR (EGFR^WT, EGFR^T790M, and EGFR^L858R)” (Journal of Enzyme Inhibition and Medicinal Chemistry, 2023):

How the values were obtained:
CCRF-CEM = assay: NCI-60 anticancer screening (SRB); assay type: cell-based; conditions: Homo sapiens, leukemia, one dose 10 μM, read-out: Growth Inhibition Percentage (GI %)
HL-60(TB) = assay: NCI-60 anticancer screening (SRB); assay type: cell-based; conditions: Homo sapiens, leukemia, one dose 10 μM, read-out: Growth Inhibition Percentage (GI %)
K-562 = assay: NCI-60 anticancer screening (SRB); assay type: cell-based; conditions: Homo sapiens, K562; K-562, leukemia; one dose 10 μM; read-out: Growth Inhibition Percentage (GI %)
SR = assay: NCI-60 anticancer screening (SRB); assay type: cell-based; conditions: Homo sapiens, leukemia, one dose 10 μM, read-out: Growth Inhibition Percentage (GI %)
NCI-H226 = assay: NCI-60 anticancer screening (SRB); assay type: cell-based; conditions: Homo sapiens; NCI-H226, NSC lung cancer; one dose 10 μM; read-out: Growth Inhibition Percentage (GI %)
NCI-H322M = assay: NCI-60 anticancer screening (SRB); assay type: cell-based; conditions: Homo sapiens, NSC lung cancer, one dose 10 μM, read-out: Growth Inhibition Percentage (GI %)
COLO 205 = assay: NCI-60 anticancer screening (SRB); assay type: cell-based; conditions: Homo sapiens; COLO 205, colon cancer; one dose 10 μM; read-out: Growth Inhibition Percentage (GI %)
HCT-116 = assay: NCI-60 anticancer screening (SRB); assay type: cell-based; conditions: Homo sapiens; HCT-116, colon cancer; one dose 10 μM; read-out: Growth Inhibition Percentage (GI %)
HCT-15 = assay: NCI-60 anticancer screening (SRB); assay type: cell-based; conditions: Homo sapiens; HCT-15, colon cancer; one dose 10 μM; read-out: Growth Inhibition Percentage (GI %)
KM 12 = assay: NCI-60 anticancer screening (SRB); assay type: cell-based; conditions: Homo sapiens, KM12; KM 12, colon cancer; one dose 10 μM; read-out: Growth Inhibition Percentage (GI %)
SW-620 = assay: NCI-60 anticancer screening (SRB); assay type: cell-based; conditions: Homo sapiens; SW-620, colon cancer; one dose 10 μM; read-out: Growth Inhibition Percentage (GI %)
SF-268 = assay: NCI-60 anticancer screening (SRB); assay type: cell-based; conditions: Homo sapiens; SF-268, CNS cancer; one dose 10 μM; read-out: Growth Inhibition Percentage (GI %)
SNB-75 = assay: NCI-60 anticancer screening (SRB); assay type: cell-based; conditions: Homo sapiens; SNB-75, CNS cancer; one dose 10 μM; read-out: Growth Inhibition Percentage (GI %)
U251 = assay: NCI-60 anticancer screening (SRB); assay type: cell-based; conditions: Homo sapiens, U-251; U251, CNS cancer; one dose 10 μM; read-out: Growth Inhibition Percentage (GI %)
LOX IMVI = assay: NCI-60 anticancer screening (SRB); assay type: cell-based; conditions: Homo sapiens, melanoma, one dose 10 μM, read-out: Growth Inhibition Percentage (GI %)
M14 = assay: NCI-60 anticancer screening (SRB); assay type: cell-based; conditions: Homo sapiens; M14, melanoma; one dose 10 μM; read-out: Growth Inhibition Percentage (GI %)
SK-MEL-2 = assay: NCI-60 anticancer screening (SRB); assay type: cell-based; conditions: Homo sapiens; SK-MEL-2, melanoma; one dose 10 μM; read-out: Growth Inhibition Percentage (GI %)
UACC-257 = assay: NCI-60 anticancer screening (SRB); assay type: cell-based; conditions: Homo sapiens; UACC-257, melanoma; one dose 10 μM; read-out: Growth Inhibition Percentage (GI %)
IGROV1 = assay: NCI-60 anticancer screening (SRB); assay type: cell-based; conditions: Homo sapiens, IGROV-1; IGROV1, ovarian cancer; one dose 10 μM; read-out: Growth Inhibition Percentage (GI %)
OVCAR-5 = assay: NCI-60 anticancer screening (SRB); assay type: cell-based; conditions: Homo sapiens; OVCAR-5, ovarian cancer; one dose 10 μM; read-out: Growth Inhibition Percentage (GI %)
NCI/ADR-RES = assay: NCI-60 anticancer screening (SRB); assay type: cell-based; conditions: Homo sapiens, ovarian cancer, one dose 10 μM, read-out: Growth Inhibition Percentage (GI %)
SK-OV-3 = assay: NCI-60 anticancer screening (SRB); assay type: cell-based; conditions: Homo sapiens; SK-OV-3, ovarian cancer; one dose 10 μM; read-out: Growth Inhibition Percentage (GI %)
786-0 = assay: NCI-60 anticancer screening (SRB); assay type: cell-based; conditions: Homo sapiens; 786-0, renal cancer; one dose 10 μM; read-out: Growth Inhibition Percentage (GI %)
A498 = assay: NCI-60 anticancer screening (SRB); assay type: cell-based; conditions: Homo sapiens; A498, renal cancer; one dose 10 μM; read-out: Growth Inhibition Percentage (GI %)
RXF 393 = assay: NCI-60 anticancer screening (SRB); assay type: cell-based; conditions: Homo sapiens; RXF 393, renal cancer; one dose 10 μM; read-out: Growth Inhibition Percentage (GI %)
TK-10 = assay: NCI-60 anticancer screening (SRB); assay type: cell-based; conditions: Homo sapiens; TK-10, renal cancer; one dose 10 μM; read-out: Growth Inhibition Percentage (GI %)
PC-3 = assay: NCI-60 anticancer screening (SRB); assay type: cell-based; conditions: Homo sapiens; PC-3, prostate cancer; one dose 10 μM; read-out: Growth Inhibition Percentage (GI %)
MCF7 = assay: NCI-60 anticancer screening (SRB); assay type: cell-based; conditions: Homo sapiens; MCF7, breast cancer; one dose 10 μM; read-out: Growth Inhibition Percentage (GI %)
MDA-MB-231 = assay: NCI-60 anticancer screening (SRB); assay type: cell-based; conditions: Homo sapiens; MDA-MB-231, breast cancer; one dose 10 μM; read-out: Growth Inhibition Percentage (GI %)
BT-549 = assay: NCI-60 anticancer screening (SRB); assay type: cell-based; conditions: Homo sapiens; BT-549, breast cancer; one dose 10 μM; read-out: Growth Inhibition Percentage (GI %)
T-47D = assay: NCI-60 anticancer screening (SRB); assay type: cell-based; conditions: Homo sapiens, T47D, breast cancer, one dose 10 μM, read-out: Growth Inhibition Percentage (GI %)
MDA-MB-468 = assay: NCI-60 anticancer screening (SRB); assay type: cell-based; conditions: Homo sapiens; MDA-MB-468, breast cancer; one dose 10 μM; read-out: Growth Inhibition Percentage (GI %)
NCI 60 cancer cell lines = assay: NCI-60 anticancer screening (SRB), whole panel; assay type: cell-based, human; conditions: mean across the NCI-60 panel; one dose 10 μM

CCOC(=O)C1=C(N)N(c2ccc(C)cc2)C2=C(C(=O)CC(C)(C)C2)C1c1ccc(OC)cc1 (racemic) [8g, (±)-Ethyl 2-amino-4–(4-methoxyphenyl)-7,7-dimethyl-1–(4-methylphenyl)-5-oxo-1,4,5,6,7,8-hexahydroquinoline-3-carboxylate]
13%: inhibition at 10 µM (SNB-75)
< 10%: inhibition at 10 µM (CCRF-CEM) | inhibition at 10 µM (HL-60(TB)) | inhibition at 10 µM (K-562) | inhibition at 10 µM (SR) | inhibition at 10 µM (NCI-H226) | inhibition at 10 µM (NCI-H322M) | inhibition at 10 µM (COLO 205) | inhibition at 10 µM (HCT-116) | inhibition at 10 µM (HCT-15) | inhibition at 10 µM (KM 12) | inhibition at 10 µM (SW-620) | inhibition at 10 µM (SF-268) | inhibition at 10 µM (U251) | inhibition at 10 µM (LOX IMVI) | inhibition at 10 µM (M14) | inhibition at 10 µM (SK-MEL-2) | inhibition at 10 µM (UACC-257) | inhibition at 10 µM (IGROV1) | inhibition at 10 µM (OVCAR-5) | inhibition at 10 µM (NCI/ADR-RES) | inhibition at 10 µM (SK-OV-3) | inhibition at 10 µM (786-0) | inhibition at 10 µM (A498) | inhibition at 10 µM (RXF 393) | inhibition at 10 µM (TK-10) | inhibition at 10 µM (PC-3) | inhibition at 10 µM (MCF7) | inhibition at 10 µM (MDA-MB-231) | inhibition at 10 µM (BT-549) | inhibition at 10 µM (T-47D) | inhibition at 10 µM (MDA-MB-468)
- ((-) = GI % mean less than 10): GI % mean (NCI 60 cancer cell lines)

CCOC(=O)C1=C(N)N(c2ccc(Cl)cc2)C2=C(C(=O)CC(C)(C)C2)C1c1ccc(OC)cc1 (racemic) [8h, (±)-Ethyl 2-amino-1–(4-chlorophenyl)-4–(4-methoxyphenyl)-7,7-dimethyl-5-oxo-1,4,5,6,7,8-hexahydroquinoline-3-carboxylate]
25%: inhibition at 10 µM (BT-549)
< 10%: inhibition at 10 µM (CCRF-CEM) | inhibition at 10 µM (HL-60(TB)) | inhibition at 10 µM (K-562) | inhibition at 10 µM (SR) | inhibition at 10 µM (NCI-H226) | inhibition at 10 µM (NCI-H322M) | inhibition at 10 µM (COLO 205) | inhibition at 10 µM (HCT-116) | inhibition at 10 µM (HCT-15) | inhibition at 10 µM (KM 12) | inhibition at 10 µM (SW-620) | inhibition at 10 µM (SF-268) | inhibition at 10 µM (SNB-75) | inhibition at 10 µM (U251) | inhibition at 10 µM (LOX IMVI) | inhibition at 10 µM (M14) | inhibition at 10 µM (SK-MEL-2) | inhibition at 10 µM (UACC-257) | inhibition at 10 µM (IGROV1) | inhibition at 10 µM (OVCAR-5) | inhibition at 10 µM (NCI/ADR-RES) | inhibition at 10 µM (SK-OV-3) | inhibition at 10 µM (786-0) | inhibition at 10 µM (A498) | inhibition at 10 µM (RXF 393) | inhibition at 10 µM (TK-10) | inhibition at 10 µM (PC-3) | inhibition at 10 µM (MCF7) | inhibition at 10 µM (MDA-MB-231) | inhibition at 10 µM (T-47D) | inhibition at 10 µM (MDA-MB-468)
- ((-) = GI % mean less than 10): GI % mean (NCI 60 cancer cell lines)

CCOC(=O)C1=C(N)N(c2ccc(C)cc2)C2=C(C(=O)CC(C)(C)C2)C1c1ccc([N+](=O)[O-])cc1 (racemic) [8j, (±)-Ethyl 2-amino-7,7-dimethyl-1–(4-methylphenyl)-4–(4-nitrophenyl)-5-oxo-1,4,5,6,7,8-hexahydroquinoline-3-carboxylate]
- ((-) = GI % mean less than 10): GI % mean (NCI 60 cancer cell lines)
< 10%: inhibition at 10 µM (CCRF-CEM) | inhibition at 10 µM (HL-60(TB)) | inhibition at 10 µM (K-562) | inhibition at 10 µM (SR) | inhibition at 10 µM (NCI-H226) | inhibition at 10 µM (NCI-H322M) | inhibition at 10 µM (COLO 205) | inhibition at 10 µM (HCT-116) | inhibition at 10 µM (HCT-15) | inhibition at 10 µM (KM 12) | inhibition at 10 µM (SW-620) | inhibition at 10 µM (SF-268) | inhibition at 10 µM (SNB-75) | inhibition at 10 µM (U251) | inhibition at 10 µM (LOX IMVI) | inhibition at 10 µM (M14) | inhibition at 10 µM (SK-MEL-2) | inhibition at 10 µM (UACC-257) | inhibition at 10 µM (IGROV1) | inhibition at 10 µM (OVCAR-5) | inhibition at 10 µM (NCI/ADR-RES) | inhibition at 10 µM (SK-OV-3) | inhibition at 10 µM (786-0) | inhibition at 10 µM (A498) | inhibition at 10 µM (RXF 393) | inhibition at 10 µM (TK-10) | inhibition at 10 µM (PC-3) | inhibition at 10 µM (MCF7) | inhibition at 10 µM (MDA-MB-231) | inhibition at 10 µM (BT-549) | inhibition at 10 µM (T-47D) | inhibition at 10 µM (MDA-MB-468)
